Laboratory results reported in patent USRE48461E1, “Modulation of androgen receptor expression” (Ionis Pharmaceuticals, Inc., priority 2012, dated 2021).

Experiments:
Assay type in all cases: cell-based, human
LNCaP cells = experiment: LNCaP cell proliferation, ASO in combination with MDV3100 (Example 20); conditions: for Proliferation (% untreated control) in LNCaP without MDV-3100: 5 days
Description: (§1) LNCaP cells were plated at 1,000 cells per well. […] ISIS 549148 was included as a negative control. […] After a treatment period of 5 days, the proliferative capacity of the cancer cells was measured with CellTiter 96® AQueous One or CellTiter-Glo® Solution Cell Proliferation kit (Promega), following the manufacturer's instructions. […]

C4-2B cells = experiment: C4-2B cell proliferation, ASO in combination with MDV3100 (Example 21); conditions: for Proliferation (% untreated control) in C4-2B without MDV-3100: 5 days
Description: as §1, with “C4-2B” for “LNCaP”, “One” for “One or CellTiter-Glo®”

[1] = tested on: prostate-specific antigen (PSA) mRNA; experiment: Time-course PSA expression in C4-2B cells; conditions: 0.04 μM, 8 hours
Procedure, shortened: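 C4-2B cells at 1,000/well in complete medium, treated with antisense oligonucleotide; ISIS 549148 as negative control. PSA and TMPRSS2 mRNA measured after 8, 24 and 48 h, given as percent inhibition relative to non-treated cells.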

[2] = ASO dose 0.04 μM + 0.08 μM MDV-3100
[3] = ASO dose 0.04 μM + 0.4 μM MDV-3100
[4] = ASO dose 0.04 μM + 2.0 μM MDV-3100
[5] = ASO dose 0.04 μM + […] MDV-3100
[6] = ASO dose 0.08 μM + 0.08 μM MDV-3100
[7] = ASO dose 0.08 μM + 0.4 μM MDV-3100
[8] = ASO dose 0.08 μM + 2.0 μM MDV-3100
[9] = ASO dose 0.08 μM + […] MDV-3100
[10] = ASO dose 0.2 μM + 0.08 μM MDV-3100
[11] = ASO dose 0.2 μM + 0.4 μM MDV-3100
[12] = ASO dose 0.2 μM + 2.0 μM MDV-3100
[13] = ASO dose 1.0 μM + 0.08 μM MDV-3100
[14] = ASO dose 1.0 μM + 0.4 μM MDV-3100
[15] = ASO dose 1.0 μM + 2.0 μM MDV-3100

“TTGATTTAATGGTTGC [ISIS 560131] (MOE and (S)-cEt gapmer chemistry, further chemistry not given here) [targets intron 1]” was tested, and the “Proliferation (% untreated control) in LNCaP with 0.08 μM MDV-3100” value (LNCaP cells; [2]) was 59 % untreated control, the “Proliferation (% untreated control) in LNCaP with 0.4 μM MDV-3100” value (LNCaP cells; [3]) was 50 % untreated control and the “Proliferation (% untreated control) in LNCaP with 2.0 μM MDV-3100” value (LNCaP cells; [4]) was 42 % untreated control. For the same sequence, the “Proliferation (% untreated control) in LNCaP with […] MDV-3100” value (LNCaP cells; [5]) was 71 % untreated control, the “Proliferation (% untreated control) in LNCaP without MDV-3100” value (LNCaP cells; ASO dose 0.04 μM) was 76 % untreated control and the “Proliferation (% untreated control) in LNCaP with 0.08 μM MDV-3100” value (LNCaP cells; [6]) was 99 % untreated control. For the same sequence, the “Proliferation (% untreated control) in LNCaP with 0.4 μM MDV-3100” value (LNCaP cells; [7]) was 68 % untreated control, the “Proliferation (% untreated control) in LNCaP with 2.0 μM MDV-3100” value (LNCaP cells; [8]) was 45 % untreated control and the “Proliferation (% untreated control) in LNCaP with […] MDV-3100” value (LNCaP cells; [9]) was 103 % untreated control. The “Proliferation (% untreated control) in LNCaP without MDV-3100” value (LNCaP cells; ASO dose 0.08 μM) was 106 % untreated control, the “Proliferation (% untreated control) in LNCaP with 0.08 μM MDV-3100” value (LNCaP cells; [10]) was 48 % untreated control and the “Proliferation (% untreated control) in LNCaP with 0.4 μM MDV-3100” value (LNCaP cells; [11]) was 40 % untreated control. The “Proliferation (% untreated control) in LNCaP with 2.0 μM MDV-3100” value (LNCaP cells; [12]) was 38 % untreated control, the “Proliferation (% untreated control) in LNCaP with […] MDV-3100” value (LNCaP cells; ASO dose 0.2 μM + […] MDV-3100) was 49 % untreated control and the “Proliferation (% untreated control) in LNCaP without MDV-3100” value (LNCaP cells; ASO dose 0.2 μM) was 50 % untreated control. The “Proliferation (% untreated control) in LNCaP with 0.08 μM MDV-3100” value (LNCaP cells; [13]) was 27 % untreated control, the “Proliferation (% untreated control) in LNCaP with 0.4 μM MDV-3100” value (LNCaP cells; [14]) was 26 % untreated control and the “Proliferation (% untreated control) in LNCaP with 2.0 μM MDV-3100” value (LNCaP cells; [15]) was 23 % untreated control. The “Proliferation (% untreated control) in LNCaP with […] MDV-3100” value (LNCaP cells; ASO dose 1.0 μM + […] MDV-3100) was 25 % untreated control, the “Proliferation (% untreated control) in LNCaP without MDV-3100” value (LNCaP cells; ASO dose 1.0 μM) was 26 % untreated control and the “synergy with MDV3100” value (LNCaP cells; LNCaP cells) was “synergistic with MDV3100”. For the same sequence, the “cell proliferation inhibited, combination” value (LNCaP cells; LNCaP cells, 0.04 μM ASO in combination with 0.08 μM MDV3100) was 41%, the “inhibited cell proliferation, ASO alone” value (LNCaP cells; LNCaP cells, ASO alone at 0.04 μM) was 24% and the “Proliferation (% untreated control) in C4-2B with 0.08 μM MDV-3100” value (C4-2B cells; [2]) was 73 % untreated control. For the same sequence, the “Proliferation (% untreated control) in C4-2B with 0.4 μM MDV-3100” value (C4-2B cells; [3]) was 69 % untreated control, the “Proliferation (% untreated control) in C4-2B with 2.0 μM MDV-3100” value (C4-2B cells; [4]) was 42 % untreated control and the “Proliferation (% untreated control) in C4-2B with […] MDV-3100” value (C4-2B cells; [5]) was 71 % untreated control. For the same sequence, the “Proliferation (% untreated control) in C4-2B without MDV-3100” value (C4-2B cells; ASO dose 0.04 μM) was 59 % untreated control, the “Proliferation (% untreated control) in C4-2B with 0.08 μM MDV-3100” value (C4-2B cells; [6]) was 66 % untreated control and the “Proliferation (% untreated control) in C4-2B with 0.4 μM MDV-3100” value (C4-2B cells; [7]) was 69 % untreated control. The “Proliferation (% untreated control) in C4-2B with 2.0 μM MDV-3100” value (C4-2B cells; [8]) was 37 % untreated control, the “Proliferation (% untreated control) in C4-2B with […] MDV-3100” value (C4-2B cells; [9]) was 104 % untreated control and the “Proliferation (% untreated control) in C4-2B without MDV-3100” value (C4-2B cells; ASO dose 0.08 μM) was 84 % untreated control. The “Proliferation (% untreated control) in C4-2B with 0.08 μM MDV-3100” value (C4-2B cells; [10]) was 56 % untreated control, the “Proliferation (% untreated control) in C4-2B with 0.4 μM MDV-3100” value (C4-2B cells; [11]) was 48 % untreated control and the “Proliferation (% untreated control) in C4-2B with 2.0 μM MDV-3100” value (C4-2B cells; [12]) was 49 % untreated control. For the same sequence, the “Proliferation (% untreated control) in C4-2B with […] MDV-3100” value (C4-2B cells; ASO dose 0.2 μM + […] MDV-3100) was 53 % untreated control, the “Proliferation (% untreated control) in C4-2B without MDV-3100” value (C4-2B cells; ASO dose 0.2 μM) was 47 % untreated control and the “Proliferation (% untreated control) in C4-2B with 0.08 μM MDV-3100” value (C4-2B cells; [13]) was 42 % untreated control. The “Proliferation (% untreated control) in C4-2B with 0.4 μM MDV-3100” value (C4-2B cells; [14]) was 48 % untreated control, the “Proliferation (% untreated control) in C4-2B with 2.0 μM MDV-3100” value (C4-2B cells; [15]) was 43 % untreated control and the “Proliferation (% untreated control) in C4-2B with […] MDV-3100” value (C4-2B cells; ASO dose 1.0 μM + […] MDV-3100) was 39 % untreated control. For the same sequence, the “Proliferation (% untreated control) in C4-2B without MDV-3100” value (C4-2B cells; ASO dose 1.0 μM) was 41 % untreated control, the “synergy with MDV3100” value (C4-2B cells; C4-2B cells) was “synergistic with MDV3100” and the “cell proliferation inhibited, combination” value (C4-2B cells; C4-2B cells, 0.08 μM ASO in combination with 0.4 μM MDV3100) was 31%. For the same sequence, the “inhibited cell proliferation, ASO alone” value (C4-2B cells; C4-2B cells, ASO alone at 0.08 μM) was 16% and the “Percent inhibition of PSA expression compared to the control group in 8 hours” value [1] was 12%.
